# pIC50: −log10 of the molar value.
# Target: T1, full length active recombinant SYK enzyme (Homo sapiens, UniProt P43405)
# T1 construct: full length active recombinant SYK enzyme (Millipore, Calif.); purchased Millipore
# Assay: Inhibition of Syk tyrosine phosphorylation activity (LANCE TR-FRET kinase assay)
# Assay type: biochemical
# Conditions: activity in the Syk assays, class symbols
# In short: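 IC50 was derived by non-linear regression of TR-FRET signal (Eu-W1024-PY100 donor, streptavidin-APC acceptor) read 1 h after EDTA quench. The kinase step ran 1 h at room temperature with 1 nM full-length SYK, 550 nM biotinylated DEEDYESP substrate and 100 μM ATP in Tris pH 7.5/MgCl2/DTT at 3% final DMSO.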
row,pIC50,SMILES
1,8.00 to 9.00,"Cc1cc(Nc2nc(N[C@H](CC3CC3)C(N)=O)cnc2C(N)=O)ccn1 [Example 101, (R)-5-(1-amino-3-cyclopropyl-1-oxopropan-2-ylamino)-3-(2-methylpyridin-4-ylamino)pyrazine-2-carboxamide]"
2,7.00 to 8.00,"NC(=O)c1ncc(N[C@@H]2CCCC(F)(F)[C@@H]2N)nc1Nc1cnc2ccccc2c1 [Example 102, 5-((1R,2R)-2-amino-3,3-difluorocyclohexylamino)-3-(quinolin-3-ylamino)pyrazine-2-carboxamide]"
3,7.00 to 8.00,"Cc1cccc(Nc2nc(N[C@@H]3CCCC(F)(F)[C@@H]3N)cnc2C(N)=O)c1 [Example 103, 5-((1R,2R)-2-amino-3,3-difluorocyclohexylamino)-3-(m-tolylamino)pyrazine-2-carboxamide]"
4,8.00 to 9.00,"NC(=O)c1ncc(N[C@@H]2CCNC2)nc1Nc1csc2ncccc12 [Example 106, (R)-5-(pyrrolidin-3-ylamino)-3-(thieno[2,3-b]pyridin-3-ylamino)pyrazine-2-carboxamide]"
5,7.00 to 8.00,"NC(=O)c1ncc(N[C@H]2CCNC2)nc1Nc1ccc2ncccc2c1 [Example 108, (S)-5-(pyrrolidin-3-ylamino)-3-(quinolin-6-ylamino)pyrazine-2-carboxamide]"
6,< 6.00,"CC(=O)N1CC[C@@H](Nc2cnc(C(N)=O)c(Nc3ccc4ncccc4c3)n2)C1 [Example 111, (R)-5-((1-acetylpyrrolidin-3-yl)amino)-3-(quinolin-6-ylamino)pyrazine-2-carboxamide]"
7,7.00 to 8.00,"Cc1ccc(Nc2nc(N[C@@H]3CCNC3)cnc2C(N)=O)cc1 [Example 112, (R)-5-(pyrrolidin-3-ylamino)-3-(p-tolylamino)pyrazine-2-carboxamide]"
8,7.00 to 8.00,"NC(=O)c1ncc(N[C@@H]2CCNC2)nc1Nc1cccnc1 [Example 113, (R)-3-(pyridin-3-ylamino)-5-(pyrrolidin-3-ylamino)pyrazine-2-carboxamide]"
9,8.00 to 9.00,"NC(=O)c1ncc(N[C@@H]2CCNC2)nc1Nc1cccc(-c2ncccn2)c1 [Example 114, (R)-3-((3-(pyrimidin-2-yl)phenyl)amino)-5-(pyrrolidin-3-ylamino)pyrazine-2-carboxamide]"
10,8.00 to 9.00,"Cc1cccc(Nc2nc(N[C@@H]3CCNC3)cnc2C(N)=O)c1 [Example 116, (R)-5-(pyrrolidin-3-ylamino)-3-(m-tolylamino)pyrazine-2-carboxamide]"
11,7.00 to 8.00,"NC(=O)c1ncc(N[C@@H]2CCNC2)nc1Nc1cnc2ccncc2c1 [Example 117, (R)-3-((1,6-naphthyridin-3-yl)amino)-5-(pyrrolidin-3-ylamino)pyrazine-2-carboxamide]"
12,7.00 to 8.00,"Cc1nsc(Nc2nc(N[C@@H]3CCCC[C@@H]3N)cnc2C(N)=O)c1-c1ccccc1 [Example 120, 5-(((1R,2S)-2-aminocyclohexyl)amino)-3-((3-methyl-4-phenylisothiazol-5-yl)amino)pyrazine-2-carboxamide]"
13,6.00 to 7.00,Cc1nsc(Nc2nc(N[C@@H]3CCCC[C@@H]3N)cnc2C(N)=O)c1-c1cccnc1 [Example 121]
14,< 6.00,"Cc1nsc(Nc2nc(N[C@@H]3CCCC[C@@H]3N)cnc2C(N)=O)c1-c1cncnc1 [Example 125, 5-(((1R,2S)-2-aminocyclohexyl)amino)-3-((3-methyl-4-(pyrimidin-5-yl)isothiazol-5-yl)amino)pyrazine-2-carboxamide]"
15,8.00 to 9.00,"CCc1c(C)nsc1Nc1nc(N[C@@H]2CCCC[C@@H]2N)cnc1C(N)=O [Example 130, 5-(((1R,2S)-2-aminocyclohexyl)amino)-3-((4-ethyl-3-methylisothiazol-5-yl)amino)pyrazine-2-carboxamide]"

# Second part, the compound before the results:
row,SMILES,pIC50
1,"Cc1cc(Nc2nc(N[C@H](CC3CC3)C(N)=O)cnc2C(N)=O)c[n+]([O-])c1 [Example 100, (R)-3-(6-(1-amino-3-cyclopropyl-1-oxopropan-2-ylamino)-3-carbamoylpyrazin-2-ylamino)-5-methylpyridine 1-oxide]",7.00 to 8.00
2,"NC(=O)c1ncc(N[C@@H]2CCNC2)nc1Nc1cccc(-n2nccn2)c1 [Example 105, (R)-3-((3-(2H-1,2,3-triazol-2-yl)phenyl)amino)-5-(pyrrolidin-3-ylamino)pyrazine-2-carboxamide]",8.00 to 9.00
3,"NC(=O)c1ncc(N[C@@H]2CCNC2)nc1Nc1cnn2ccccc12 [Example 107, (R)-3-(pyrazolo[1,5-a]pyridin-3-ylamino)-5-(pyrrolidin-3-ylamino)pyrazine-2-carboxamide]",7.00 to 8.00
4,"CC(=O)N1CCC[C@H](Nc2cnc(C(N)=O)c(Nc3cnc4ccccc4c3)n2)C1 [Example 109, (S)-5-((1-acetylpiperidin-3-yl)amino)-3-(quinolin-3-ylamino)pyrazine-2-carboxamide]",< 6.00
5,"CC(=O)N1CC[C@@H](Nc2cnc(C(N)=O)c(Nc3cnc4ccccc4c3)n2)C1 [Example 110, (R)-5-((1-acetylpyrrolidin-3-yl)amino)-3-(quinolin-3-ylamino)pyrazine-2-carboxamide]",< 6.00
6,"NC(=O)c1ncc(N[C@@H]2CCNC2)nc1Nc1cncc(F)c1 [Example 115, (R)-3-((5-fluoropyridin-3-yl)amino)-5-(pyrrolidin-3-ylamino)pyrazine-2-carboxamide]",6.00 to 7.00
7,"N#CCN1CC[C@@H](Nc2cnc(C(N)=O)c(Nc3cnc4ccncc4c3)n2)C1 [Example 118, (R)-3-((1,6-naphthyridin-3-yl)amino)-5-((1-(cyanomethyl)pyrrolidin-3-yl)amino)pyrazine-2-carboxamide]",6.00 to 7.00
8,"Cc1cc(Nc2nc(N[C@H](CC(F)F)C(N)=O)cnc2C(N)=O)sn1 [Example 119, (R)-5-((1-amino-4,4-difluoro-1-oxobutan-2-yl)amino)-3-((3-methylisothiazol-5-yl)amino)pyrazine-2-carboxamide]",8.00 to 9.00
9,"Cc1ccc(Nc2nc(N[C@H](CC(F)F)C(N)=O)cnc2C(N)=O)cc1C [Example 122, (R)-5-((1-amino-4,4-difluoro-1-oxobutan-2-yl)amino)-3-((3,4-dimethylphenyl)amino)pyrazine-2-carboxamide]",> 9.00
10,"Cc1ccc(Nc2nc(N[C@H](CC(F)F)C(N)=O)cnc2C(N)=O)cc1 [Example 123, (R)-5-((1-amino-4,4-difluoro-1-oxobutan-2-yl)amino)-3-(p-tolylamino)pyrazine-2-carboxamide]",8.00 to 9.00
11,"NC(=O)c1ncc(N[C@H](CC(F)(F)F)C(N)=O)nc1Nc1cnc2cccnc2c1 [Example 126, (R)-3-((1,5-naphthyridin-3-yl)amino)-5-((1-amino-4,4,4-trifluoro-1-oxobutan-2-yl)amino)pyrazine-2-carboxamide]",8.00 to 9.00
12,"NC(=O)c1ncc(N[C@H](CC(F)F)C(N)=O)nc1Nc1cnc2cccnc2c1 [Example 127, (R)-3-((1,5-naphthyridin-3-yl)amino)-5-((1-amino-4,4-difluoro-1-oxobutan-2-yl)amino)pyrazine-2-carboxamide]",8.00 to 9.00
13,"NC(=O)c1ncc(NCC2(N)CC2)nc1Nc1ccc2ncccc2c1 [Example 128, 5-(((1-aminocyclopropyl)methyl)amino)-3-(quinolin-6-ylamino)pyrazine-2-carboxamide]",8.00 to 9.00
14,"CNC1(CNc2cnc(C(N)=O)c(Nc3ccc4ncccc4c3)n2)CC1 [Example 129, 5-(((1-(methylamino)cyclopropyl)methyl)amino)-3-(quinolin-6-ylamino)pyrazine-2-carboxamide]",8.00 to 9.00

# From US9359308B2, “Pyrazine kinase inhibitors” (Portola Pharmaceuticals, Inc., priority 2011, dated 2016)
